Residues, ends and D or L forms follow the SMILES beside them.
Test system: human FLS cells
Experiment: Cellular cytotoxicity by release of lactate dehydrogenase (LDH)
Type: cell-based
Conditions: presence and absence of cytokine stimulation, 24 hr; IDR-1002 100 μg/ml, IDR-1 200 μg/ml; data not shown
Method: Synovial tissues were obtained from patients with OA in accordance to a protocol by the Institutional Review Board at the University of Manitoba. FLS cells were isolated from the synovial tissues following the procedure taught by Kammouni et al. (2007, Regulation of apoptosis in fibroblast-like synoviocytes by the hypoxia-induced Bcl-2 family member Bcl-2/adenovirus E1B 19-kd protein-interacting protein 3. Arthritis Rheum. 56:2854-2863). […] Cellular cytotoxicity was evaluated by monitoring the release of lactate dehydrogenase (LDH) employing a colorimetric detection kit (Roche Diagnostics, Laval, QC, Canada).
Inflammatory cytokines TNF-α and IL-1β stimulate cells types such as FLS, chondrocytes and macrophages resulting in the production of MMP-3 in arthritic joints. […] In this study we evaluated the impact of IDR peptides on TNF-α and IL-1β-induced MMP-3 production. […] The peptides were not cytotoxic to the FLS cells in the presence and absence of cytokine stimulation, as determined by monitoring the tissue culture supernatants for the release of LDH after 24 hr of stimulation (data not shown). Tissue culture supernatants were monitored after 24 hr of stimulation for MMP-3 production by ELISA. […]

## CC[C@H](C)[C@H](NC(=O)[C@H](CCCNC(=N)N)NC(=O)[C@H](CO)NC(=O)[C@@H](N)CCCCN)C(=O)N[C@H](C(=O)N1CCC[C@H]1C(=O)N[C@@H](C)C(=O)N[C@H](C(=O)N1CCC[C@H]1C(=O)N[C@H](C(=O)N[C@@H](CO)C(=O)N[C@@H](CC(C)C)C(=O)N[C@@H](CC(C)C)C(=O)O)C(C)C)[C@@H](C)CC)C(C)C [IDR-1, KSRIVPAIPVSLL, reference compound] (H-KSRIVPAIPVSLL-OH)
  cytotoxicity to FLS cells (release of LDH): not cytotoxic
